Read-outs that look alike come from different tables or passages of the source.
Tests used:
[1] = Water sorption and desorption isotherms by Dynamic Vapor Sorption (DVS); format: physicochemical; conditions: for Change In Mass (%) - ref, Desorption / Change In Mass (%) - ref, Sorption / hygroscopicity: 25° C.; for Change In Mass (%) - ref, Desorption / Change In Mass (%) - ref, Sorption: 40-0-95-0-40 (% RH); for hygroscopicity: 0 to 95% RH
Experimental: Water sorption and desorption isotherms were recorded at 25° C., 40° C. or 60° C. using a Dynamic Vapor Sorption (DVS) instrument as follows. The cycle used was as follows: 40-0-95-0-40 (% RH).

[2] = Bulk stability studies (XRPD, HPLC degradation products); conditions: 1 week 50° C., 75% RH
Experimental: The stability of the crystalline form was investigated as follows. Bulk samples were analysed, e.g. by HPLC and/or XRPD after being exposed to various temperatures and residual humidities.

[3] = XRPD upon variation of humidity and temperature; format: physicochemical
[4] = Granulation simulation experiments (XRPD after wetting and grinding); format: physicochemical
Experimental: Granulating solvent was added drop wise to the solid form being tested until the solid form was wetted sufficiently. The wet substance was ground manually. The solid form was evaluated for degree of crystallinity or form change by e.g., XRPD analysis and/or DSC analysis. Granulating solvents were water, pH 4.7, 50 mM acetate buffer, and pH 6.8, 50 mM phosphate buffer.

KRAS G12C [5] = molecular target: T1, KRAS G12C (Homo sapiens, UniProt P01116, G12C); experiment: Covalent inhibition / binding of KRAS G12C; conditions: binds KRAS G12C and traps it into inactive GDP-bound state
[6] = tested on: KR ASG12C mutant cell lines; experiment: Cellular assays: KRAS-driven oncogenic signaling and proliferation; format: cell-based; conditions: specifically in KRAS G12C mutant cell lines
KRAS G12C [7] = molecular target: T1, KRAS G12C; experiment: Cellular assay: downstream effector protein recruitment; format: cell-based; conditions: cellular assays
[8] = tested on: KRAS G12C mutant xenograft and patient-derived xenograft tumor models; experiment: Xenograft and patient-derived xenograft tumor models; format: in vivo; conditions: mice

Row | Compound | Change In Mass (%) - ref, Desorption ([1]; Cycle 1, target RH 0.0%) [%] | Change In Mass (%) - ref, Sorption ([1]; Cycle 1, target RH 0.0%) [%] | Change In Mass (%) - ref, Desorption ([1]; Cycle 1, target RH 10.0%) [%] | Change In Mass (%) - ref, Sorption ([1]; Cycle 1, target RH 10.0%) [%] | Change In Mass (%) - ref, Desorption ([1]; Cycle 1, target RH 20.0%) [%] | Change In Mass (%) - ref, Sorption ([1]; Cycle 1, target RH 20.0%) [%] | Change In Mass (%) - ref, Desorption ([1]; Cycle 1, target RH 30.0%) [%] | Change In Mass (%) - ref, Sorption ([1]; Cycle 1, target RH 30.0%) [%] | Change In Mass (%) - ref, Desorption ([1]; Cycle 1, target RH 40.0%) [%] | Change In Mass (%) - ref, Sorption ([1]; Cycle 1, target RH 40.0%) [%] | Change In Mass (%) - ref, Sorption ([1]; Cycle 1, target RH 50.0%) [%] | Change In Mass (%) - ref, Sorption ([1]; Cycle 1, target RH 60.0%) [%] | Change In Mass (%) - ref, Sorption ([1]; Cycle 1, target RH 70.0%) [%] | Change In Mass (%) - ref, Sorption ([1]; Cycle 1, target RH 80.0%) [%] | Change In Mass (%) - ref, Sorption ([1]; Cycle 1, target RH 90.0%) [%] | Change In Mass (%) - ref, Sorption ([1]; Cycle 1, target RH […]) [%] | Change In Mass (%) - ref, Desorption ([1]; Cycle 2, target RH 0.0%) [%] | Change In Mass (%) - ref, Sorption ([1]; Cycle 2, target RH 0.0%) [%] | Change In Mass (%) - ref, Desorption ([1]; Cycle 2, target RH 10.0%) [%] | Change In Mass (%) - ref, Sorption ([1]; Cycle 2, target RH 10.0%) [%] | other results
1 | C=CC(=O)N1CC2(CC(n3nc(-c4ccc5c(cnn5C)c4)c(-c4c(Cl)c(C)cc5[nH]ncc45)c3C)C2)C1.O.O.O.O [Hydrate HB] | 0.00 | 0.00 | 1.87 | 0.56 | 2.62 | 2.03 | 12.26 | 2.51 | 12.73 | 2.81 | 3.17 | 3.69 | 5.09 | 10.34 | 12.94 | 13.35 | −0.09 | −0.09 | 1.74 | 0.47 | maximum water uptake ([1]; 25° C. and up to 95% RH): about 13%; Change In Mass (%) - ref, Desorption ([1]; Cycle 2, target RH 20.0%): 2.37%; Change In Mass (%) - ref, Sorption ([1]; Cycle 2, target RH 20.0%): 1.88%; Change In Mass (%) - ref, Desorption ([1]; Cycle 2, target RH 30.0%): 11.38%; Change In Mass (%) - ref, Sorption ([1]; Cycle 2, target RH 30.0%): 2.32%; Change In Mass (%) - ref, Desorption ([1]; Cycle 2, target RH 40.0%): 11.87%; Change In Mass (%) - ref, Sorption ([1]; Cycle 2, target RH 40.0%): 2.69%; Change In Mass (%) - ref, Desorption ([1]; Cycle 2, target RH 50.0%): 12.24%; Change In Mass (%) - ref, Desorption ([1]; Cycle 2, target RH 60.0%): 12.53%; Change In Mass (%) - ref, Desorption ([1]; Cycle 2, target RH 70.0%): 12.78%; Change In Mass (%) - ref, Desorption ([1]; Cycle 2, target RH 80.0%): 13.02%; Change In Mass (%) - ref, Desorption ([1]; Cycle 2, target RH 90.0%): 13.24%; Change In Mass (%) - ref, Desorption ([1]; Cycle 2, target RH […]): 13.35%; % Degradation Products, as measured by HPLC ([2]; area-% products): 3.97%; form change at 0% RH ([3]; 0% RH): completely dehydrates; form change on heating ([3]; further heating to 70° C. and above): converts to an anhydrous form, Modification B; XRPD pattern on heating ([3]; heated from 25° C. to 40° C.): changes to hydrate HC
2 | C=CC(=O)N1CC2(CC(n3nc(-c4ccc5c(cnn5C)c4)c(-c4c(Cl)c(C)cc5[nH]ncc45)c3C)C2)C1 [Hydrate HA] | 0.002 | 0.002 | 2.638 | 2.390 | 3.008 | 2.782 | 3.381 | 3.184 | 3.838 | 3.660 | 4.295 | 5.234 | 6.244 | 7.007 | 7.633 | 7.973 | 0.000 | 0.000 | 2.659 | 2.388 | water content corresponding to hosted water molecules ([1]; 2.5 molecules of water): 7.9%; hygroscopicity [1]: hygroscopic; water absorbed ([1]; 80% RH at 25° C.): up to 7.0%; Change In Mass (%) - ref, Desorption ([1]; Cycle 2, target RH 20.0%): 3.102%; Change In Mass (%) - ref, Sorption ([1]; Cycle 2, target RH 20.0%): 2.773%; Change In Mass (%) - ref, Desorption ([1]; Cycle 2, target RH 30.0%): 3.573%; Change In Mass (%) - ref, Sorption ([1]; Cycle 2, target RH 30.0%): 3.163%; Change In Mass (%) - ref, Desorption ([1]; Cycle 2, target RH 40.0%): 4.126%; Change In Mass (%) - ref, Sorption ([1]; Cycle 2, target RH 40.0%): 3.624%; Change In Mass (%) - ref, Desorption ([1]; Cycle 2, target RH 50.0%): 5.062%; Change In Mass (%) - ref, Desorption ([1]; Cycle 2, target RH 60.0%): 6.040%; Change In Mass (%) - ref, Desorption ([1]; Cycle 2, target RH 70.0%): 6.816%; Change In Mass (%) - ref, Desorption ([1]; Cycle 2, target RH 80.0%): 7.346%; Change In Mass (%) - ref, Desorption ([1]; Cycle 2, target RH 90.0%): 7.766%; Change In Mass (%) - ref, Desorption ([1]; Cycle 2, target RH […]): 7.973%; molecules of water hosted ([1]; depending on the relative humidity): up to 2.5 molecules; XRPD after granulation simulation ([4]; solvent for granulation: Water): no form change; form change after equilibration (XRPD) (50° C. and 70° C.): formation of several solvates in cyclohexane, ethanol, isopropanol or 1,2-propanediol; form change on heating ([3]; at 80° C.): converts into an anhydrous form, namely Modification A; XRPD pattern on heating ([3]; heated at ambient relative humidity from 25° C. to 65° C.): remains unchanged
3 | C=CC(=O)N1CC2(CC(n3nc(-c4ccc5c(cnn5C)c4)c(-c4c(Cl)c(C)cc5[nH]ncc45)c3C)C2)C1 (single isomer, unassigned) [Compound A, 1-{6-[(4M)-4-(5-chloro-6-methyl-1H-indazol-4-yl)-5-methyl-3-(1-methyl-1H-indazol-5-yl)-1H-pyrazol-1-yl]-2-azaspiro[3.3]heptan-2-yl}prop-2-en-1-one] | – | – | – | – | – | – | – | – | – | – | – | – | – | – | – | – | – | – | – | – | inhibition of KRAS G12C (KRAS G12C [5]): potent and selective covalent inhibitor; KRAS-driven oncogenic signaling and proliferation [6]: inhibited; downstream effector protein recruitment to KRAS G12C (KRAS G12C [7]): selectively inhibited; antitumor activity [8]: dose-dependent antitumor activity; expression of the MAPK pathway target gene dual-specific phosphatase 6 (DUPS6) [8]: reduction of expression
4 | C=CC(=O)N1CC2(CC(n3nc(-c4ccc5c(cnn5C)c4)c(-c4c(Cl)c(C)cc5[nH]ncc45)c3C)C2)C1 [Modification C] | −0.0018 | −0.0018 | 0.0522 | 0.0639 | 0.0984 | 0.1010 | 0.1282 | 0.1365 | 0.1658 | 0.1764 | 0.2099 | 0.2719 | 0.2954 | 0.3628 | 0.4475 | 0.5450 | −0.0143 | −0.0143 | 0.0532 | 0.0434 | hygroscopicity [1]: non hygroscopic; Change In Mass (%) - ref, Desorption ([1]; Cycle 2, target RH 20.0%): 0.1019%; Change In Mass (%) - ref, Sorption ([1]; Cycle 2, target RH 20.0%): 0.0893%; Change In Mass (%) - ref, Desorption ([1]; Cycle 2, target RH 30.0%): 0.1500%; Change In Mass (%) - ref, Desorption ([1]; Cycle 2, target RH 40.0%): 0.2014%; Change In Mass (%) - ref, Sorption ([1]; Cycle 2, target RH 40.0%): 0.1725%; Change In Mass (%) - ref, Desorption ([1]; Cycle 2, target RH 50.0%): 0.2678%; Change In Mass (%) - ref, Desorption ([1]; Cycle 2, target RH 60.0%): 0.3212%; Change In Mass (%) - ref, Desorption ([1]; Cycle 2, target RH 70.0%): 0.3789%; Change In Mass (%) - ref, Desorption ([1]; Cycle 2, target RH 80.0%): 0.4299%; Change In Mass (%) - ref, Desorption ([1]; Cycle 2, target RH 90.0%): 0.5046%; Change In Mass (%) - ref, Desorption ([1]; Cycle 2, target RH […]): 0.5450%; form change after granulation simulation ([4]; aqueous media as the solvent for granulation): no form change; XRPD after bulk storage [2]: No change; form change after equilibration (in ethanol, and methanol): converts to Hydrate HA; form change after equilibration (in isopropanol): converts into a mixture of HA and the isopropanol solvate
